28 compounds from patent publication US6528543B1, “Urea derivatives” (Hoffman-La Roche Inc., priority 1999, dated 2003) can be followed below.

By melting point is commonly meant the temperature, or range, at which the solid turns liquid.

In the case of `CC(C)CC(C(=O)NC(N)=O)c1ccc(Cl)cc1` (stereo not shown) [Example 16, [2-(4-chloro-phenyl)-4-methyl-pentanoyl]-urea], the melting point fell in the range of 164 to 165 °C.
Take `CCS(=O)(=O)c1ccc(C(CC2CCCC2)C(=O)NC(=O)NC)cc1` (stereo not shown) [Example 33, 1-[3-cyclopentyl-2-(4-ethanesulfonyl-phenyl)-propionyl]-3-methyl-urea]: the melting point is 200 to 201 °C.
`CNC(=O)NC(=O)C(CC1CCCC1)c1ccccc1` (stereo not shown) [Example 6, 1-(3-cyclopentyl-2-phenyl-propionyl)-3-methyl-urea] returned a melting point of 145 to 147 °C.
`CNC(=O)NC(=O)C(CC1CCCC1)c1ccc(C#N)cc1` (stereo not shown) [Example 43, 1-[2-(4-cyano-phenyl)-3-cyclopentyl-propionyl]-3-methyl-urea]: the melting point is 61 to 65 °C.
In turn, `CNC(=O)NC(=O)C(CC1CCCC1)c1ccc(SC)cc1` (stereo not shown) [Example 10, 1-[3-cyclopentyl-2-(4-methylsulfanyl-phenyl)-propionyl]-3-methyl urea] came in with a melting point of 185 to 186 °C.
Consider `CNC(=O)NC(=O)C(CC1CCCC1)c1cccc(Cl)c1` (stereo not shown) [Example 2, 1-[2-(3-chloro-phenyl)-3-cyclopentyl-propionyl]-3-methyl-urea], for which the melting point was 52 to 55 °C.
The result for `CNC(=O)NC(=O)C(CC1CCCC1)c1ccc(S(C)(=O)=O)c([N+](=O)[O-])c1` (stereo not shown) [Example 14, 1-[3-cyclopentyl-2-(4-methanesulfonyl-3-nitrophenyl)-propionyl]-3-methyl-urea] reads 241 to 242 °C; that for `CNC(=O)NC(=O)C(CC1CCCC1)c1ccc(SC(F)(F)F)cc1` (stereo not shown) [Example 8, 1-[3-cyclopentyl-2-(4-trifluoromethylsulfanyl-phenyl)-propionyl]-3-methyl urea], 144 to 145 °C.
Turning to `CCCCS(=O)(=O)c1ccc(C(CC2CCCC2)C(=O)NC(=O)NC)cc1` (stereo not shown) [Example 39, 1-{2-[4-(butane-1-sulfonyl)-phenyl]-3-cyclopentyl-propionyl}-3-methyl-urea], the melting point fell in the range of 189 to 191 °C.
As for `CNC(=O)NC(=O)C(CC1CCCC1)c1ccc(S(C)(=O)=O)c(Br)c1` (stereo not shown) [Example 35, 1-[2-(3-bromo-4-methanesulfonyl-phenyl)-3-cyclopentyl-propionyl]-3-methyl-urea], the melting point fell in the range of 259 to 260 °C.
For `CC(C)C[C@@H](C(=O)NC(N)=O)c1ccc(Cl)c(Cl)c1` [Example 17, R-[2-(3,4-dichloro-phenyl)-4-methyl-pentanoyl]-urea], the melting point is 138 to 140 °C.
On to `NC(=O)NC(=O)C(CC1CCCCC1)c1ccc(Cl)c(Cl)c1` (stereo not shown) [Example 1], for which the melting point is 76 to 79 °C.
`CNC(=O)NC(=O)C(CC1CCCC1)c1cccc(S(=O)(=O)C(F)(F)F)c1` (stereo not shown) [Example 31, 1-[3-cyclopentyl-2-(3-trifluoromethanesulfonyl-phenyl)-propionyl]-3-methyl-urea] came in with a melting point of 59 to 62 °C.
With `CC(O)CNC(=O)NC(=O)C(CC1CCCC1)c1ccc(Cl)c(Cl)c1` (stereo not shown) [Example 19, 1-[3-cyclopentyl-2-(3,4-dichloro-phenyl)-propionyl]-3-(2-hydroxy-propyl)-urea], the melting point was 116.7 to 119.9 °C.
`CNC(=O)NC(=O)C(CC1CCCC1)c1ccc(S(C)(=O)=O)cc1` (stereo not shown) [Example 11, 1-[3-cyclopentyl-2-(4-methanesulfonyl-phenyl)-propionyl]-3-methyl urea] returned a melting point of 205 to 206 °C.
`CNC(=O)NC(=O)C(CC1CCCC1)c1ccc(S(C)(=O)=O)c(C#N)c1` (stereo not shown) [Example 36, 1-[2-(3-cyano-4-methanesulfonyl-phenyl)-3-cyclopentyl-propionyl]-3-methyl-urea] registered a melting point of 237 to 239 °C.
With `CNC(=O)NC(=O)C(CC1CCCC1)c1ccc(Cl)c([N+](=O)[O-])c1` (stereo not shown) [Example 34, 1-[2-(4-chloro-3-nitro-phenyl)-3-cyclopentyl-propionyl]-3-methyl-urea], the melting point lay in the range of 61 to 64 °C.
Consider `CNC(=O)NC(=O)C(CC1CCCC1)c1ccc([N+](=O)[O-])cc1` (stereo not shown) [Example 5, 1-[3-cyclopentyl-2-(4-nitro-phenyl)-propionyl]-3-methyl-urea], for which the melting point lay within 179 to 183 °C.
For `CNC(=O)NC(=O)C(CC1CCCC1)c1ccc(Cl)cc1` (stereo not shown) [Example 4, 1-[2-(4-chloro-phenyl)-3-cyclopentyl-propionyl]-3-methyl-urea], the melting point fell in the range of 145 to 147 °C.
Compound `CNC(=O)NC(=O)C(CC1CCCC1)c1ccc(Br)cc1` (stereo not shown) [Example 7, 1-[2-(4-bromo-phenyl)-3-cyclopentyl-propionyl]-3-methyl urea] returned a melting point of 184 to 186 °C.
The result for `COC(=O)CNC(=O)NC(=O)C(CC1CCCC1)c1ccc(Cl)c(Cl)c1` (stereo not shown) [Example 21, {3-[3-cyclopentyl-2-(3,4-dichloro-phenyl)-propionyl]-ureido}-acetic acid methyl ester] reads 134.5 to 136.6 °C; that for `CNC(=O)NC(=O)C(CC1CCCC1)c1ccc(F)c(F)c1` (stereo not shown) [Example 3, 1-[3-cyclopentyl-2-(3,4-difluoro-phenyl)-propionyl]-3-methyl-urea], 111 to 113 °C.
Compound `CNC(=O)NC(=O)C(CC1CCCC1)c1ccc(S(=O)(=O)C(F)(F)F)cc1` (stereo not shown) [Example 9, 1-[3-cyclopentyl-2-(4-trifluoromethanesulfonyl-phenyl)-propionyl]-3-methyl urea] yielded a melting point of 191 to 192 °C.
The compound `CNC(=O)NC(=O)C(CC1CCCC1)c1ccc(C(F)(F)F)c(F)c1` (stereo not shown) [Example 32, 1-[3-cyclopentyl-2-(3-fluoro-4-trifluoromethyl-phenyl)-propionyl]-3-methyl-urea] yielded a melting point of 187 to 189 °C.
In the case of `CNC(=O)NC(=O)C(CC1CCCC1)c1ccc(S(C)(=O)=O)c(S(C)(=O)=O)c1` (stereo not shown) [Example 37, 1-[2-(3,4-bis-methanesulfonyl-phenyl)-3-cyclopentyl-propionyl]-3-methyl-urea], the melting point lay in the range of 220 to 222 °C.
As to `CNC(=O)NC(=O)C(CC1CCCC1)c1ccc(S(C)(=O)=O)c(C(F)(F)F)c1` (stereo not shown) [Example 40, 1-[3-cyclopentyl-2-(4-methanesulfonyl-3-trifluoromethyl-phenyl)-propionyl]-3-methyl-urea], the melting point lay within 268 to 270 °C.
For the compound `CNC(=O)NC(=O)C(CC1CCCC1)c1ccc(S(C)(=O)=O)c(F)c1` (stereo not shown) [Example 42, 1-[3-cyclopentyl-2-(3-fluoro4-methanesulfonyl-phenyl)-propionyl]-3-methyl-urea], the melting point was in the range of 199 to 200 °C.
Compound `CNC(=O)NC(=O)[C@H](CC1CCCC1)c1ccc(Cl)c(Cl)c1` [Example 13, 1-[3-cyclopentyl-2(R)-(3,4-dichloro-phenyl)-propionyl]-3-methyl-urea] gave a melting point of 124.8 to 127.5 °C.
